Source: ChEMBL document CHEMBL1201862, “PubChem BioAssay data set” (2004)
Each block holds one compound with its values, some of them ahead of it. Calls of active or inactive are those of the source.

Assays:
Large T antigen = Large T antigen (Simian virus 40, UniProt P03070); format: functional, Betapolyomavirus macacae;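 further: Confirmatory-stage PubChem screen for compounds that inhibit SV40 T antigen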
[1] = biological target: T1, Tyrosine-protein phosphatase non-receptor type 7 (Homo sapiens, UniProt P35236); experiment: HePTP (PTPN7) phosphatase inhibitor potency, SAR follow-up, biochemical, set 2 (AID 449736); format: functional
T1 sequence (P35236 whole entry): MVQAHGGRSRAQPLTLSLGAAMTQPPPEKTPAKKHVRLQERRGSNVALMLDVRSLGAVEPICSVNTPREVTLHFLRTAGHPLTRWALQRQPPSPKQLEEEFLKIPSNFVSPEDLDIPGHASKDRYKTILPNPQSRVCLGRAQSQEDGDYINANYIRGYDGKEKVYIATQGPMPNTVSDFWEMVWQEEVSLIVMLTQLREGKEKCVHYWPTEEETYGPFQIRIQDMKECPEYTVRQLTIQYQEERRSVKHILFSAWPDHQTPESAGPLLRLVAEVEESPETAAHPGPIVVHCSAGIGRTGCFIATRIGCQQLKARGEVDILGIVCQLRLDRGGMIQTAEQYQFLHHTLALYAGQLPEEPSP

Hexokinase = Hexokinase (Trypanosoma brucei, UniProt Q38C41); experiment: Confirmation assay for inhibitors of Trypanosoma brucei hexokinase 1-Analogue-first series. [Related pubchem assays (depositor defined):AID1430, AID1632, AID2516, AID2560, AID2579, AID2600, AID449725, AID492951]; format: functional
Sequence of Hexokinase (Q38C41 whole entry): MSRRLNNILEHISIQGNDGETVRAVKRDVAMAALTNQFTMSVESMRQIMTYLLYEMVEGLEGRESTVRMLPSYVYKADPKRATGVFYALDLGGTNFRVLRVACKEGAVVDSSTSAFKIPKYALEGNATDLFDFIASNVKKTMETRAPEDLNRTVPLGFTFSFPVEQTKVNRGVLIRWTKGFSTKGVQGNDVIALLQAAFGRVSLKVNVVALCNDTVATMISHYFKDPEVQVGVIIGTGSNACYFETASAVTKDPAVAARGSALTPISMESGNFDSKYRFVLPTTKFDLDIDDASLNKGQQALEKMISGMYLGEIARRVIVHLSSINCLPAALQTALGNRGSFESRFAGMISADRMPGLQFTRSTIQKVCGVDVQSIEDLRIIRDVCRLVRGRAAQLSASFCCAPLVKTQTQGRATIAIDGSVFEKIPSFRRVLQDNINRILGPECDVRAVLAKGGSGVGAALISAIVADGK

[2] = growth induction of Burl-1 ts yeast mutant, dose response, counter-screen for SUMOylation pathway inhibitor project, whole organism, S. cerevisiae, luminescence (AID 463199); format: functional
HEK293 [3] = experiment: cells; format: functional, cell-based; settings: Homo sapiens
HEK293 [4] = experiment: NOD1 signaling inhibitors, primary screen, cell-based, luminescence, uHTS (AID 1578); format: functional; settings: Homo sapiens
[5] = biological target: Nucleotide-binding oligomerization domain-containing protein 2 (Homo sapiens, UniProt Q9HC29); experiment: NOD2 signaling inhibitors, cell-based, luminescence, uHTS, HEK293 (AID 1566); format: functional
HEK293 [6] = experiment: cells; format: functional, cell-based; settings: Homo sapiens; remark: listed apart in the source
HEK293 [7] = experiment: cells; format: functional, cell-based; settings: Homo sapiens; remark: listed apart in the source
HEK293 [8] = experiment: NOD2 signaling inhibitors in MDP-stimulated cells, cell-based, uHTS, luminescence (AID 2001); format: functional; settings: Homo sapiens
[9] = biological target: Induced myeloid leukemia cell differentiation protein Mcl-1 (Homo sapiens, UniProt Q07820); format: functional
Sequence of Induced myeloid leukemia cell differentiation protein Mcl-1 (Q07820 whole entry): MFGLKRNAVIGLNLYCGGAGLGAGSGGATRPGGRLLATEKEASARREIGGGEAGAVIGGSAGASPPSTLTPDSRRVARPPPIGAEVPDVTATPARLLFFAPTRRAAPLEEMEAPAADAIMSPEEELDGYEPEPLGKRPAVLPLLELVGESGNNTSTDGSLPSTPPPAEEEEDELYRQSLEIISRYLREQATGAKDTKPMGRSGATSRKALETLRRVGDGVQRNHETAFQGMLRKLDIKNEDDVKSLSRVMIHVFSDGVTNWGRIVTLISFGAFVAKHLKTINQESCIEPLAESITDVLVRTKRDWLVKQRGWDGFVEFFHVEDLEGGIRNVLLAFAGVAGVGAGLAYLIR

[10] = biological target: T2, Voltage-gated N-type calcium channel alpha-1B subunit/Amyloid beta A4 precursor protein-binding family A member 1 (Homo sapiens, UniProt Q00975+Q02410); format: protein assay
T2 sequence (Q00975 whole entry, the tested form may be a part): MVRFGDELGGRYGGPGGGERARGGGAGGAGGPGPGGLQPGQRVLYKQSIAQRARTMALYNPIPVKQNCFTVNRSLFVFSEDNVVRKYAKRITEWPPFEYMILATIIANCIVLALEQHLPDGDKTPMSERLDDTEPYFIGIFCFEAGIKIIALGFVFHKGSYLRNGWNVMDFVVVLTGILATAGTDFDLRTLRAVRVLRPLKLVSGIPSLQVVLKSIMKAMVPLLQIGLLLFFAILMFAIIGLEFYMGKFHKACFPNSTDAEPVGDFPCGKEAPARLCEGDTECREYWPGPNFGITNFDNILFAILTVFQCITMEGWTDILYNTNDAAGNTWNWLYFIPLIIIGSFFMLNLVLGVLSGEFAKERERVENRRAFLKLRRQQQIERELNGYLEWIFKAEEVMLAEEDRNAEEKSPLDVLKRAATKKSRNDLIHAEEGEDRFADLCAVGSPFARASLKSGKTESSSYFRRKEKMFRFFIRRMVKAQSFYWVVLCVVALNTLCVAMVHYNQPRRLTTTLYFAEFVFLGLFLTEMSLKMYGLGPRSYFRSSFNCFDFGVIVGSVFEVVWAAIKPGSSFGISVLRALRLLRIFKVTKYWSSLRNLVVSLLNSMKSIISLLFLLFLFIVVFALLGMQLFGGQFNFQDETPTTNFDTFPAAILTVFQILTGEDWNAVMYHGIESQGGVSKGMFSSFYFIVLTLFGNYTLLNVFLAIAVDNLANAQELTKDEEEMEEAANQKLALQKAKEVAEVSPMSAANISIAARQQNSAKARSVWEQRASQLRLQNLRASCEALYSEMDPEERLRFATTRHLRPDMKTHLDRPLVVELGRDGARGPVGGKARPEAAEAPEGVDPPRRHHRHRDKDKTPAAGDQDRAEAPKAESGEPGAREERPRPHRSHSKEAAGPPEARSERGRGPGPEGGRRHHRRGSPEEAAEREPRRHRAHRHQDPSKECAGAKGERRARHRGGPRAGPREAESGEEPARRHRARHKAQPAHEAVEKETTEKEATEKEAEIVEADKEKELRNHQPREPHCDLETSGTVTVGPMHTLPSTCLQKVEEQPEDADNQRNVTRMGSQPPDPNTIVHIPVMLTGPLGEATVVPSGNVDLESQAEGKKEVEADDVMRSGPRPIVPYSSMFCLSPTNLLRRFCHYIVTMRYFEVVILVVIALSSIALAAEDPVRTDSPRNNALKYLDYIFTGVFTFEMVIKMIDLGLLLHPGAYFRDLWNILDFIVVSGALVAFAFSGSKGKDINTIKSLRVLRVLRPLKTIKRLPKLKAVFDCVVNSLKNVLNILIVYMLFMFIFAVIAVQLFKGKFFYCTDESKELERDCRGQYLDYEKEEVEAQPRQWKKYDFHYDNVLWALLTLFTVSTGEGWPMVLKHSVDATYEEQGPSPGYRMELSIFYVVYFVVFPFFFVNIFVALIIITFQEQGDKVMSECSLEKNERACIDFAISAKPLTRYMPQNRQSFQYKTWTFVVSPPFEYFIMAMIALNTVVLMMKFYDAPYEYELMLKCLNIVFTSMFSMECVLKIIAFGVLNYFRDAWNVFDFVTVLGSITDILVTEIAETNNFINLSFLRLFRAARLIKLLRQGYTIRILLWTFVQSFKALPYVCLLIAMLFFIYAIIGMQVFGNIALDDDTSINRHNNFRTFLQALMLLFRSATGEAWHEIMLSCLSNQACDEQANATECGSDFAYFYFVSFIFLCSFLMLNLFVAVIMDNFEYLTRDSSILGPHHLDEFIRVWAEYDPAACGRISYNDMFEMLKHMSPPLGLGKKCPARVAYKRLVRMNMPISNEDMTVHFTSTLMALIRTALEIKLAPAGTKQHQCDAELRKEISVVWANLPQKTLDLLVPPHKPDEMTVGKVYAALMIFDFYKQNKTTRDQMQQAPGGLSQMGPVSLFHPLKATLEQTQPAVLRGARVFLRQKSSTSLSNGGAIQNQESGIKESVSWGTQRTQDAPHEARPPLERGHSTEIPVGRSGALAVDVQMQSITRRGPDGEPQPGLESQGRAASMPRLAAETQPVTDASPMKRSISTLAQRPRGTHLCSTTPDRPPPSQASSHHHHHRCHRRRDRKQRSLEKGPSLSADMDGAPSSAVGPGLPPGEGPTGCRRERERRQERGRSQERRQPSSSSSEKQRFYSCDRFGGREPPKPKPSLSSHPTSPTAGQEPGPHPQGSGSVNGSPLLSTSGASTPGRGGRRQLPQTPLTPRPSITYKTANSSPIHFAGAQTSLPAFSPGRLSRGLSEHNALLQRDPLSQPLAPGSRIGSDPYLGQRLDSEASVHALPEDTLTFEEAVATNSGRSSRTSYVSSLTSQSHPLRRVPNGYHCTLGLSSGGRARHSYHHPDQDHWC
T2 sequence (Q02410 whole entry, the tested form may be a part): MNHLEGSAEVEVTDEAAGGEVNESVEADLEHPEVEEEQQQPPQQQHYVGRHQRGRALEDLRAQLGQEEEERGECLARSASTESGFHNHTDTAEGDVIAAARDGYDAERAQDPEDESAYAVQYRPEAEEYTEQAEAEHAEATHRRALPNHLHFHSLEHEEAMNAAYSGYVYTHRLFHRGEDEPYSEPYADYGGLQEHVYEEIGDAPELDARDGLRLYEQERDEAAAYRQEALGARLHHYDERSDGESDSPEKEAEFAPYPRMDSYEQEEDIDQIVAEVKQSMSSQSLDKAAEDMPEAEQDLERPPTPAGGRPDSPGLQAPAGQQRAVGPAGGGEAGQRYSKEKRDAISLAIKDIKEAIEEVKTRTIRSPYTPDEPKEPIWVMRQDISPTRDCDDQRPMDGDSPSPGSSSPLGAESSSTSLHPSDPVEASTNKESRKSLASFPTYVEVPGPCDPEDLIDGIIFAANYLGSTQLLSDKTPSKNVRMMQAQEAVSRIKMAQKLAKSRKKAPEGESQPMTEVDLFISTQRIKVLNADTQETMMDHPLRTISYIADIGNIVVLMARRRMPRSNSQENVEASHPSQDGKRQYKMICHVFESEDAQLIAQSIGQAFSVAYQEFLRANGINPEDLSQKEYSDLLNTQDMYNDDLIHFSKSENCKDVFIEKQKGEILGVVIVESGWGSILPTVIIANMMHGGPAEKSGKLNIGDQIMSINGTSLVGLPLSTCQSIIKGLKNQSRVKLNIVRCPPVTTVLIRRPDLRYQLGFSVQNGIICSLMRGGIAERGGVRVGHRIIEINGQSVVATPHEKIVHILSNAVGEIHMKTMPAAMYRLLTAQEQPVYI

[11] = biological target: T3, Carboxy-terminal domain RNA polymerase II polypeptide A small phosphatase 1 (Homo sapiens, UniProt Q9GZU7); experiment: inhibitors of CTDSP1, concentration-response testing, biochemical assay, absorbance-based, actives from ultra-high-throughput screening (AID 540297); format: functional
T3 sequence (Q9GZU7 whole entry): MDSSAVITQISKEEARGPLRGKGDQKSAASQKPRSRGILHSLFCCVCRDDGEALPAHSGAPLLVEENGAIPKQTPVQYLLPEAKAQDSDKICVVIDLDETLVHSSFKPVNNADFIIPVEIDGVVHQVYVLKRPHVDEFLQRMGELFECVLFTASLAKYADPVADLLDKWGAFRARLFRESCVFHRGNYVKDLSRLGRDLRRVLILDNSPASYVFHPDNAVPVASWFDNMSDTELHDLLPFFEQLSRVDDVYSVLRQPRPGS

[12] = biological target: T2, Voltage-gated N-type calcium channel alpha-1B subunit/Amyloid beta A4 precursor protein-binding family A member 1; format: protein assay; remark: listed apart in the source
Coagulation factor XII = biological target: T4, Coagulation factor XII (Homo sapiens, UniProt P00748); experiment: Factor XIIa Dose Response Confirmation from Single Well HTS. [Related pubchem assays (depositor defined):AID701]; format: functional
T4 sequence (P00748 whole entry): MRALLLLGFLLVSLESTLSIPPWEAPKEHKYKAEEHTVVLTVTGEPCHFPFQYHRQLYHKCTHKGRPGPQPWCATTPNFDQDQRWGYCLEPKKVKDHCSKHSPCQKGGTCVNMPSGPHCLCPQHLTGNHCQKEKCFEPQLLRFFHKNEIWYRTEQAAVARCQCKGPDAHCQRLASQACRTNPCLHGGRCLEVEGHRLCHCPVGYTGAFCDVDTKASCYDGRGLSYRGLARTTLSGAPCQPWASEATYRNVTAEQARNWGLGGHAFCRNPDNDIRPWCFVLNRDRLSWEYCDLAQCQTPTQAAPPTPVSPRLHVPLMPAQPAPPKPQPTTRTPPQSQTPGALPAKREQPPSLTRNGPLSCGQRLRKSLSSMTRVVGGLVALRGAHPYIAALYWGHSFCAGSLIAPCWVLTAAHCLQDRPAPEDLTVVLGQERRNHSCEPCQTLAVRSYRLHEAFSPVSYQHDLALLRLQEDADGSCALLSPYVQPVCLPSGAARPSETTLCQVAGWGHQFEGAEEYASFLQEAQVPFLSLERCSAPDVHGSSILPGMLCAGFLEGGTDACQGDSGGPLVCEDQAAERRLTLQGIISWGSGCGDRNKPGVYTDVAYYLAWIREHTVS

[13] = inhibitors of intracellular T. cruzi replication, confirmation, NIH3T3 host cells, beta-gal luminescence (AID 2044); format: functional, cell-based;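 further: intracellular parasites grown in NIH/3T3 mouse fibroblasts as host cells; luminescent beta-galactosidase reporter signal from transgenic T. cruzi replicating inside host cells; inhibitors lower the luminescence signal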
Bcl-2-like protein 10 = Bcl-2-like protein 10 (Homo sapiens, UniProt Q9HD36); experiment: displacers of TR3 peptide from Bcl-B, primary screen, selectivity assay for Bfl-1 inhibitor project, biochemical, fluorescence polarization, FITC-TR3 peptide (AID 748);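 further: fluorescence polarization from a fluorescein-labelled TR3 peptide binding purified Bcl-B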
Sequence of Bcl-2-like protein 10 (Q9HD36 whole entry): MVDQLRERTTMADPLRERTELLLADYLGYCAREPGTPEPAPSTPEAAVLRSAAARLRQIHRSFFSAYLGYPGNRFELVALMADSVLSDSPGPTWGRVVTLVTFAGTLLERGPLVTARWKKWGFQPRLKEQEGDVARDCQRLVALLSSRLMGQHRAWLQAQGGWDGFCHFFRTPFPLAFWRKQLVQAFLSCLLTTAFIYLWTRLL

[14] = cytotoxicity toward NIH3T3 fibroblasts, dose response, counter-screen, cell-based, ATP luminescence, mouse fibroblasts (AID 2010); format: functional;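 further: cells exposed to compound for about 90 hours before reading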
SUMO-activating enzyme = SUMO-activating enzyme (Homo sapiens, UniProt Q9UBT2); experiment: SUMOylation inhibitor hit validation, confirmation, SUMOylation inhibitor project, biochemical, AlphaScreen (AID 2018); format: functional

Sequence of Large T antigen (P03070 whole entry): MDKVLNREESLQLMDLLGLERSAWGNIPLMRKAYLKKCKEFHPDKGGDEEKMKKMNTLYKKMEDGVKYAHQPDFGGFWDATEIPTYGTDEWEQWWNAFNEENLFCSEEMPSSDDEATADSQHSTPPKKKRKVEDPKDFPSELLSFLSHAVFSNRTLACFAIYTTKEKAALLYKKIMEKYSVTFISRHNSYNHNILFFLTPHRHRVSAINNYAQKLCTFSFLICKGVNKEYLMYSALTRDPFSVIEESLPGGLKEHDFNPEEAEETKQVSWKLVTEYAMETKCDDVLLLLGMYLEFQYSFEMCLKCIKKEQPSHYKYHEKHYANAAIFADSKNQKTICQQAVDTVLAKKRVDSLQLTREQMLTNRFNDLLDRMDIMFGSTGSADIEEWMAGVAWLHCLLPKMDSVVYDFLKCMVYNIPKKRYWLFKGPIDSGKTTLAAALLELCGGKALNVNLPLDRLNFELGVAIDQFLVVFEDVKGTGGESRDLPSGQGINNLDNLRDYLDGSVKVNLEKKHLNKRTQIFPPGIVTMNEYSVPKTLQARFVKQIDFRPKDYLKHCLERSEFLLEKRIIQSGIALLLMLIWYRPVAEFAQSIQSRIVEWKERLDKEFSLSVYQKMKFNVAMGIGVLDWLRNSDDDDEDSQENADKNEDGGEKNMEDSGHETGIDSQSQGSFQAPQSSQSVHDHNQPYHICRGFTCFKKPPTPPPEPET

- IC50 (Large T antigen): 18.3 µM (active)
SMILES: CC(C)CC1=NN2C(=N)/C(=C\c3coc4ccccc4c3=O)C(=O)N=C2S1

- IC50 [9]: 3.94 µM (active)
- IC50 [10]: 13.1 µM (active)
- IC50 [11]: 4.74 µM (active)
- IC50 [12]: > 50 µM (inactive)
SMILES: Cc1c(O)cc2c(c1O)C(=O)CC(c1ccc(O)cc1)O2 (stereo not given)

- IC50 (Coagulation factor XII): > 50 µM (inactive)
SMILES: FC(F)(F)c1cnc(Oc2ccc(-c3nnco3)cc2)c(Cl)c1

- IC50 (SUMO-activating enzyme): > 100 µM (inactive)
SMILES: Cc1ccc2oc(-c3ccc(C)c(NC(=O)Cc4cccs4)c3)nc2c1

More lines, now with the values behind:

SMILES: CCNS(=O)(=O)c1ccc(NC(=S)NC2CCCCC2)cc1
- IC50 [1]: > 100 µM (inactive)

SMILES: O=C(Cn1sc2ccccc2c1=O)Nc1cccc(F)c1
- IC50 (Hexokinase): 4.78 µM (active)

SMILES: Cc1ccccc1-c1nnc(CN2CCC(C)CC2)o1
- AC50 [2]: 46.9 µM (active)

SMILES: Cc1nc(N2CCN(C(=O)COc3ccccc3)CC2)c2c(C)c(C)sc2n1
- IC50 (HEK293 [3]): > 20 µM (inactive)
- EC50 (HEK293 [4]): 5.68 µM (active)
- EC50 [5]: 7.34 µM (active)
- IC50 (HEK293 [6]): 11.9 µM (active)
- IC50 (HEK293 [7]): 5.32 µM (active)
- IC50 (HEK293 [8]): 5.95 µM (active)

SMILES: COc1ccc(NC(=O)Cn2sc3ccccc3c2=O)cc1
- IC50 (Hexokinase): 5.63 µM (active)

SMILES: Cc1ccc(CNc2ccc3c(c2)OCO3)cc1
- EC50 [13]: 1.52 µM (active)
- IC50 (Bcl-2-like protein 10): > 3.13 µM (inactive)
- EC50 [14]: > 60 µM (not active)
